Assay results as given in US20180296523A1, “USE OF POLYMETHOXYLATED FLAVONES TO AMELIORATE CIRCADIAN RHYTHM DISORDERS” (THE BOARD OF REGENTS OF THE UNIVERSITY OF TEXAS SY, priority 2017, published 2018).
Entries after “also recorded” stand apart in the source; their conditions may differ.

Legend:
RORγt = biological target: T1, RORγt (Homo sapiens, UniProt P51449); details: Huh et al., 2011; cited from earlier work
T1 sequence (P51449 1-497 isoform P51449-2): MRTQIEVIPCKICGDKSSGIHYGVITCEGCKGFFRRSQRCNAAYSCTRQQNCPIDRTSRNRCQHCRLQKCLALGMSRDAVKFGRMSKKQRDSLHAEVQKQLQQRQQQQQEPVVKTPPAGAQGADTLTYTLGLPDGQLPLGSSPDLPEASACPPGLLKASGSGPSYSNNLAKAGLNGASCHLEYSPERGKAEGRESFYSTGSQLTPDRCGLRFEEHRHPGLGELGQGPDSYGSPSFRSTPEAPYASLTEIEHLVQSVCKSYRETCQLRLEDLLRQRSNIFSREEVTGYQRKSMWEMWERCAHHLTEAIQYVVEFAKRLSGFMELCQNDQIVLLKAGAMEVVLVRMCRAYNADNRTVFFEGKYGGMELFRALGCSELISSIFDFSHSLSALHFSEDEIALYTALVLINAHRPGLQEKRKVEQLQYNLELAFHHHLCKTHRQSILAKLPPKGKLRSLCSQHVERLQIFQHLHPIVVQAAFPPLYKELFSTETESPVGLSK

[1] = Pharmacokinetic study in mice (LC-MS/MS); assay type: in vivo; details: mouse, oral gavage 200 mg/kg; for exposure in plasma/serum, brain and liver: single dose, 200 mg/kg
Description: For diet-induced obesity, male mice at 6 weeks of age were fed with HFD (D12492, Research Diets) until the end of the experimental protocol. The mice were treated with either vehicle (DMSO) or NOB (200 mg/kg body weight) via oral gavage every other day, in the time window of ZT8-10, throughout the experimental period. An every-other-day dosing regimen was chosen at the indicated level based on several reasons. First, previous in vivo studies have used similar overall amounts for mouse treatment (100-125 mg/kg/day) (Lee et al., 2013; Li et al., 2006). The oral gavage procedure was done in late afternoon (ZT8-10) prior to the start of their active phase, reasoning that this may coincide with the time-window adopted by previous studies. Second, daily dosing was not chosen to avoid entraining the experimental mice with the procedure per se as an artificial zeitgeber. Furthermore, pilot pharmacokinetic (PK) assays were done under a single-dose condition (Fig. S7). […] Therefore, it was reasoned that every-other day dosing helps avoid any incomplete daily clearance over the chronic experimental period (10 weeks). NOB was administered orally at ZT8 at a dose of 200 mg/kg in 0.25% sodium Carboxy Methyl Cellulose (CMC) suspension. Three mice per time point were sacrificed at 0.0, 1.0, 2.0, 4.0, 8.0 and 24.0 hr after oral gavage. NOB in plasma, brain and liver was determined by LC-MS/MS (API 4000: EQ-RS-MS-006).

[2] = system: db/db and db/db Clock^Δ19/Δ19 mice; experiment: db/db diabetic mice and db/db Clock^Δ19/Δ19 double-mutant mice; assay type: in vivo, mouse
Description: Weekly body weight was monitored in different treatment mice for 10 weeks. Body mass composition was measured at the end of experiments using a minispec mqNMR spectrometer (Bruker Optics, Texas) (Garcia et al., 2013). A control group of mice were fed with regular chow diet (Purina 5001) in parallel with the two treatment groups in HFD. For db/db and db/db Clock^Δ19/Δ19 mice, male mice at 6-8 weeks of age were group-housed (2-3/cage) and maintained on regular chow diets. Mice were subjected to oral gavage with either DMSO or NOB as described above.
Serum samples were obtained at ZT2 from treated mice as previously described (Jeong et al., 2015). Hepatic triglyceride and cholesterol were extracted as previously described (Liu et al., 2012). The triglyceride and cholesterol levels in liver and serum were assessed by Serum Triglyceride Determination Kit (Sigma) and Cholesterol Assay Kit (Cayman), respectively. The assay plates were read by a TECAN M200 instrument (Tecan) following the manufacturer's instructions.
Glucose tolerance test (GTT) and insulin tolerance test (ITT) were performed largely as described (He et al., 2015; Jeong et al., 2015). Briefly, after overnight and 5-hr fasting, GTT and ITT were conducted at ZT2 and ZT8 respectively. Glucose levels were measured from tail blood before and 15, 30, 60, or 120 min after injection of either 1 g/kg glucose or 0.75 U/kg insulin (Sigma) at ZT2 and ZT8 respectively by using the ONETOUCH UltraMini blood glucose monitoring system (LifeScan). Serum insulin levels were measured with the Rat/Mouse Insulin Elisa kit (Millipore) according to the manufacturer's instructions. The plasma samples were collected at ZT2 as described above for lipid assays.

[3] = other studies (Kumar et al., 2012; Singh et al., 2011); cited from earlier work
[4] = system: Bmal1 promoter (RORE) with RORα or RORγ; experiment: Bmal1 promoter-driven luciferase reporter in Hepa1-6 cells; assay type: cell-based, mouse
Text: Plasmids containing the retinoic acid-related orphan receptor response element (RORE) from mouse Bmal1 promoter, pcDNA3.1B-G4DBD-RORαLBD and pcDNA3.1BG4DBD-RORγLBD were constructed in our lab. Specifically, the 1960 bp sequences (−1830/+130) of the mouse Bmal1 promoter harboring either WT ([…] (SEQ ID NO:1) and […] (SEQ ID NO:2)) or mutant ([…] (SEQ ID NO:3)) RORE were PCR amplified from mouse genomic DNA and cloned into pGL3-promoter luciferase vector. For expression of RORα or RORγ-GAL4 protein, mouse RORα-LBD (aa 261-523) or RORγ-LBD (aa 250-516) were PCR amplified from mouse genomic DNA and cloned into a GAL4-DBD-containing vector, pcDNA3.1B.
For mammalian one-hybrid assays, HEK293T cells were cotransfected with pcDNA3.1B-G4DBD-RORα/γLBD, pGL4.31 and TK promoter Renilla luciferase construct (tK.pRL). To investigate the regulation of the Bmal1 reporter, Hepa1-6 cells were cotransfected with Bmal1-WT or mutant RORE reporter plasmids, RORα, RORγ or Rev-erbα expression construct along with tK.pRL. Mouse and human siRNA targeting RORα and RORγ were purchased from Santa Cruz. Transfection was performed by Lipfectamine 2000 reagent (Invitrogen) Twenty-four hours after transfection, the cells were treated with vehicle or NOB. Lysates were collected 24 h after treatment, and firefly and Renilla luciferase activities were measured by using a Dual-Luciferase Reporter System (Promega).

[5] = system: PER2::Luc Clock^Δ19/Δ19 fibroblast cells; experiment: Reporter rhythm in homozygous Clock^Δ19/Δ19 reporter cells; assay type: cell-based, mouse; details: clock-disrupted homozygous Clock^Δ19/Δ19 cells

For `COc1ccc(-c2cc(=O)c3c(OC)c(OC)c(OC)c(OC)c3o2)cc1OC` [nobiletin], the “effect on RORγt in primary screen” value (RORγt) is listed as “activated RORγt”, the “NOB level 8 hr after single-dose administration” value [1] is listed as “undetectable” and the “exposure in plasma/serum, brain and liver” value [1] is listed as “significant brain and systemic exposure”. For the same compound, the “exposure in plasma/serum, brain and liver” value ([1]; listed as NOB) was “significant exposure in serum, brain and particularly liver”, the “overall metabolic response to treatment” value ([2]; db/db Clock^Δ19/Δ19 double-mutant mice, in contrast to db/db) was “markedly attenuated response” and the circulating insulin levels ([2]; db/db Clock^Δ19/Δ19 mutant mice) was “strongly reduced circulating insulin levels”. For the same compound, the circulating insulin levels ([2]; db/db mice) was “strongly reduced circulating insulin levels”, the fasting glucose levels ([2]; db/db mice) was “lowered fasting glucose levels” and the “glucose tolerance (GTT)” value ([2]; db/db mice) was “improved”. The “insulin sensitivity (ITT)” value ([2]; db/db mice) was “improved”, the “serum total cholesterol (TC)” value ([2]; db/db mice) was “reduced” and the “serum total triglyceride (TG)” value ([2]; db/db mice) was “reduced”. For the same compound, the body weight gain ([2]; db/db mice, RC, 10 weeks) was “strongly blunted body weight gain”, the “NOB levels 24 hr after administration” value [3] was “able to measure NOB levels 24 hr after administration” and the “Bmal1 reporter activation with ectopic expression of REV-ERBα” value [4] was “abolished reporter activation”. The “induction of Bmal1 reporter after knockdown of RORα/γ by siRNAs” value ([4]; Hepa1-6 cells) was “abrogated the nobiletin-mediated induction”, the “Bmal1 promoter-driven luciferase reporter activity” value ([4]; WT RORE, in the presence of RORα or RORγ) was “dose-dependently increase” and the restoring reporter rhythm [5] was “ineffective in restoring the rhythm; also recorded: not able to rescue reporter rhythms”.
